Test results from ChEMBL document CHEMBL1128648, “The enantioselective synthesis and antiinflammatory activity of novel aryl-sphingolipid PKC inhibitors” (Bioorg Med Chem Lett, 1995).
pIC50: −log10 of the molar value.

Key:
Canis familiaris = organism: Canis familiaris; experiment: Inhibition of PKC-dependent neutrophil superoxide burst in dogs; format: functional, Canis lupus familiaris
Mus musculus [1] = organism: Mus musculus; experiment: Percent change in punch weights [right ear(received drug) -left ear(received vehicle)] was determined in mice at a dose of 1 mg/ear; format: functional
Protein kinase C (PKC) = experiment: Inhibition of Protein kinase C isolated from rat brain
Mus musculus [2] = organism: Mus musculus; experiment: Anti-inflammatory activity on the mice ears using antiinflammatory assay (TPAEE); format: functional

SMILES | pIC50 (Canis familiaris; Canis lupus familiaris) | Change (Mus musculus [1]) | IC50 (Protein kinase C (PKC)) | pIC50 (Canis familiaris) | ED50 (Mus musculus [2])
CCCCCCCCCCC#Cc1csc([C@@H](O)[C@@H](N)CO)c1.O=C(O)CCC(=O)O (stereo in doubt; 18 (-)) | 5.89 | -73% | 20.1 µM | – | –
CC(=O)O.CCCCCCCCCCC#Cc1ccc([C@@H](O)[C@@H](N)CO)s1 (racemic) | – | – | – | 5.82 | 0.24 mg ear-1
CCCCCCCCCCC#Cc1csc([C@@H](O)[C@@H](N)CO)c1.Cl (stereo in doubt; 18a) | – | – | 20.1 µM | – | –
CCCCCCCCCCC#Cc1csc([C@@H](O)[C@@H](N)CO)c1 (racemic) | – | – | – | 5.82 | –
CCCCCCCCCCC#Cc1csc([C@@H](O)[C@@H](N)CO)c1.Cl (stereo in doubt; 3a (+/-)) | – | -81% | 28.8 µM | – | 0.23 mg ear-1
CCCCCCCCCCC#Cc1csc([C@@H](O)[C@@H](N)CO)c1.O=C(O)CCC(=O)O (stereo in doubt; 19 (+)) | – | -63% | 23 µM | 6.00 | –
CC(=O)O.CCCCCCCCCCC#Cc1cccc([C@@H](O)[C@@H](N)CO)c1 (racemic) | 5.62 | -82% | – | – | 0.34 mg ear-1
CC(=O)O.CCCCCCCCCCC#Cc1cccc([C@@H](O)[C@@H](N)CO)c1 (stereo in doubt; 11(+)) | – | – | 19.5 µM | – | –
CCCCCCCCCCC#Cc1csc([C@@H](O)[C@@H](N)CO)c1.Cl (stereo in doubt; 19a) | – | – | 23 µM | – | –
CC(=O)O.CCCCCCCCCCC#Cc1ccc([C@@H](O)[C@@H](N)CO)s1 | 5.74 | -81% | 21.3 µM | – | –
CCCCCCCCCCCCC/C=C/[C@@H](O)[C@@H](N)CO [SPHINGOSINE] | 5.38 | -74% | – | – | 0.31 mg ear-1
CC(=O)O.CCCCCCCCCCC#Cc1cccc([C@@H](O)[C@@H](N)CO)c1 (stereo in doubt; 10 (-)) | – | -74% | 21.8 µM | 5.66 | –
